The values that follow come from PubChem BioAssay (NCI).

Several values for one entry are separate records, joined by “and”; a condition that tells them apart may be missing. Equal values may be shown once.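 Cultured in 96-well plates, cells were exposed to test compound for 48 hours across five concentrations. GI50 is the concentration that inhibits growth by half. TGI: concentration producing complete growth inhibition.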 A value given as a limit tells only on which side of the number the result lay.

Test in all cases: NCI anticancer screen, dose series, 48 h
Test [1] has as its system CAKI-1 renal.
In test [2] the test system is COLO 205 colon.
Test [3] concerns LOX IMVI melanoma.
For test [4], the system named is OVCAR-4 ovarian.
The subject of test [5] is SK-MEL-2 melanoma.
In test [6] the test system is SK-MEL-28 melanoma.
The subject of test [7] is SK-MEL-5 melanoma.
Test [8] has as its system UACC-62 melanoma.
Test [9] relates to HS 578T breast.
Test [10] relates to TK-10 renal.

Consider `Cc1c2c(cc3c1[nH]c1ccccc13)C(c1ccc(F)cc1)=NCC2`, for which the TGI was determined as 4.79 µM in [1]; 2.15 µM in test [2]; 3.02 µM in [3]; 3.12 µM in test [4]; 3.28 µM in [5]; 4.74 µM in test [6]. Also, the TGI in test [7] amounted to 4.83 µM; in test [8] it was 2.77 µM.
As to `OC(c1ccc(-c2ccccc2)cc1)(c1ccc(-c2ccccc2)cc1)c1ccc(-c2ccccc2)cc1`, the TGI in test [1], in test [2], in test [9], in test [3], in test [4] and in test [6] was more than 100 µM each time. Further, the TGI in test [7], in [10] and in test [8] was more than 100 µM in each case.
On to `O=C1CS(=O)(=O)C(c2cccc(Oc3ccccc3)c2)N1c1cccc(Cl)c1Cl` (stereo not drawn), for which the TGI in test [1] is more than 100 µM; in test [2], 67.8 µM; in test [9], 90 µM; in test [3] it was 47.7 µM; in test [4] it was 78.9 µM; in test [5], 40.1 µM. The TGI in test [6] is more than 100 µM; in test [7], 42.6 µM; in [10] it was 67.3 µM; in test [8] it was 30.7 µM.
Turning to `CCN(CC)/C(=C\Cl)Nc1ccccn1`, the TGI in test [1], in test [2], in test [3], in [4], in test [5] and in test [6] was more than 100 µM throughout. Also, the TGI in test [7], in test [10] and in test [8] was more than 100 µM throughout.
For the compound `C=CCOCCCC(=O)C(=[N+]=[N-])C(=O)OC`, the TGI in test [1], in test [2], in [3], in test [4], in [5] and in test [6] was more than 100 µM in each case. Moreover, the TGI in test [7], in [10] and in test [8] was more than 100 µM in each case.
In the case of `Cc1c(Cl)c(=O)oc2cc(OCC(=O)c3ccccc3)ccc12`, the TGI in test [1], in test [2], in test [9], in [4], in test [5] and in test [6] was more than 100 µM each time. Also, the TGI in test [7], in test [10] and in [8] was more than 100 µM throughout.
With `CN(C)CCNc1c([N+](=O)[O-])cc2c3c(cccc13)C(=O)N(CCN(C)C)C2=O`, the TGI is 6.6 µM in test [1]; 2.71 µM in test [2]; 4.01 µM in test [3]; 5.84 µM in test [4]; 3.39 µM in test [5]; 12.9 µM in [6]. The figures for the TGI in [7] and in [8] were 4.32 µM and 3.35 µM, respectively.
In the case of `CN1CCN(CCCOc2ccc3ncnc(Nc4ccc(Oc5cccc(C(F)(F)F)c5)c(Cl)c4)c3c2)CC1`, the GI50 in test [1] was 1310 nM; in test [9], 1670 nM; in test [3], 1300 nM; in test [4], 1.76 µM; in [5] it was 1860 nM; in [6], 1630 nM. Further, in test [10], the GI50 is 1500 nM. The TGI in test [1] amounted to 3.07 µM; in test [9], 4.22 µM; in [3] it was 2.81 µM; in test [4], 5.04 µM; in test [5] it was 3.72 µM; in [6], 3.01 µM. Also, the TGI in [10] worked out at 3.09 µM.
As to `O=C1CC(N2C(=O)/C(=C/C(Cl)=C\c3ccc([N+](=O)[O-])cc3)SC2=S)C(=O)N1c1ccc(Cl)cc1` (stereo not drawn), the GI50 in test [1] is 1130 nM; in [2], 1400 nM; in test [9] it was 1800 nM; in test [4], 5.55 µM; in test [5] it was 3120 nM; in [6], 1710 nM. Moreover, the GI50 in [10] was 2790 nM; in [8] it was 1770 nM. Moreover, the TGI in test [1] is 3.28 µM; in test [2] it was 3.76 µM; in [9], more than 100 µM; in test [4], more than 100 µM; in test [5], 32.1 µM; in [6] it was 4.02 µM. The TGI in test [10] was 8.63 µM; in test [8] it was 4.3 µM.
In the case of `CCCCC1Cc2cc(OC)ccc2-c2nc3cc(OC)ccc3n21` (stereo not drawn) (tested in a mixture with another compound), the TGI in [1] was 38.8 µM; in [2] it was 18.7 µM; in [9], 25.3 µM; in test [3], 30 µM; in test [4], 18.9 µM; in [7], 27.4 µM. Besides, the figures for the TGI in [10] and in test [8] were 35.5 µM and 25.5 µM, respectively.
Turning to `O=C(NN1C(=O)/C(=C/c2ccc(Cl)cc2)N=C1c1ccccc1)c1c(Cl)c(Cl)c(Cl)c(Cl)c1-c1nc2ccccc2[nH]1`, the TGI was 78.8 µM in [1]; more than 100 µM in [2]; 95.3 µM in test [9]; 62.8 µM in test [3]; 61.7 µM in test [5]; more than 100 µM in test [6]. Moreover, the TGI in test [7] is more than 100 µM; in [8], 30.9 µM.
Regarding `Cc1c(N)nc([C@H](CC(N)=O)NC[C@H](N)C(N)=O)nc1C(=O)N[C@H](C(=O)N[C@H](C)[C@@H](O)[C@H](C)C(=O)N[C@H](C(=O)NCCc1nc(-c2nc(C(=O)NCCC[S+](C)C)cs2)cs1)[C@@H](C)O)C(OC1OC(CO)C(O)C(O)C1OC1OC(CO)C(O)C(OC(N)=O)C1O)c1cnc[nH]1` (stereo partly drawn), the GI50 in test [3] is 66.1 nM; in test [6], > 29000 nM and 28100 nM; in test [10], 2360 nM and 20400 nM. Besides, the TGI is 5.32 µM and 1.89 µM and 1.51 µM in test [3]; 25 µM and > 29 µM and > 100 µM in test [6]; 16.9 µM [middle of 4 runs] in test [7].
In the case of `C=C1C(C2(C)C=CC(=O)OC3(C)COC(=O)CC32)C(OC=O)C(OC(=O)C(O)C(C)CC)C2(C)C(c3ccoc3)CC(OC(C)=O)C12O` (stereo not drawn), the TGI in [1] was more than 100 µM; in test [2], more than 100 µM; in test [9], more than 100 µM; in [3], 88.2 µM; in test [5], more than 100 µM; in test [6], more than 100 µM. For the same compound, the TGI in test [7], in [10] and in test [8] was more than 100 µM in each case.
